{"source": "patent US12076443B2", "about": "“Preparation method of nanozyme composite-based hybrid hydrogel eye drop” (INSTITUTE OF OPHTHALMOLOGY AFFILIATED TO SHANDONG FIRST …, priority 2022, dated 2024)", "key": {"[1]": {"system": "P. aeruginosa", "assay": "in vitro antibacterial experiment of TCNH eye drop", "format": "cell-based, Pseudomonas aeruginosa", "text": "(§1) The TCNH eye drop prepared in the above embodiment was used in in vitro antibacterial experiments for Escherichia coli (E. coli), P. aeruginosa, drug-resistant P. aeruginosa, and Candida albicans (C. albicans) and in vivo prevention and treatment experiments for corneal infections caused by P. aeruginosa and drug-resistant P. aeruginosa.\n(§2) FIG. 4 to FIG. 6 show results of the in vitro antibacterial experiments of the TCNH eye drop."}, "[2]": {"system": "drug-resistant P. aeruginosa", "assay": "in vitro antibacterial experiment of TCNH eye drop", "format": "cell-based, Pseudomonas aeruginosa", "text": "as §1, §2"}, "[3]": {"system": "Candida albicans (C. albicans)", "assay": "in vitro antibacterial experiment of TCNH eye drop", "format": "cell-based", "text": "as §1, §2"}, "[4]": {"system": "Escherichia coli (E. coli)", "assay": "in vitro antibacterial experiment of TCNH eye drop", "format": "cell-based", "text": "as §1, §2"}, "[5]": {"system": "P. aeruginosa", "assay": "in vivo antibacterial experiment, corneal infection (P. aeruginosa)", "details": "FIGS. 7A-7B", "text": "as §1"}, "[6]": {"system": "P. aeruginosa", "details": "P. aeruginosa isolated from the ocular surface; cited from earlier work"}, "[7]": {"system": "drug-resistant P. aeruginosa strain", "assay": "in vivo antibacterial experiment, corneal infection (drug-resistant P. aeruginosa strain)", "details": "FIGS. 8A-8B", "text": "as §1"}}}
{"compound": "OO", "note": "[H2O2, hydrogen peroxide]", "values": [{"measurement": "bacterial colonies on plates (plate experiment)", "setting": "[1]; FIG. 4", "result": "overgrown with bacteria"}, {"measurement": "live bacteria stained green / dead bacteria stained red", "setting": "[1]; FIG. 5", "result": "a large number of live bacteria stained green and a small number of dead bacteria stained red"}, {"measurement": "bacterial morphology under a scanning electron microscope", "setting": "[1]; FIG. 6", "result": "regular and intact morphology"}, {"measurement": "bacterial colonies on plates (plate experiment)", "setting": "[2]; FIG. 4", "result": "overgrown with bacteria"}, {"measurement": "live bacteria stained green / dead bacteria stained red", "setting": "[2]; FIG. 5", "result": "a large number of live bacteria stained green and a small number of dead bacteria stained red"}, {"measurement": "bacterial morphology under a scanning electron microscope", "setting": "[2]; FIG. 6", "result": "regular and intact morphology"}, {"measurement": "bacterial colonies on plates (plate experiment)", "setting": "[3]; FIG. 4", "result": "overgrown with bacteria"}, {"measurement": "live bacteria stained green / dead bacteria stained red", "setting": "[3]; FIG. 5", "result": "a large number of live bacteria stained green and a small number of dead bacteria stained red"}, {"measurement": "bacterial morphology under a scanning electron microscope", "setting": "[3]; FIG. 6", "result": "regular and intact morphology"}, {"measurement": "bacterial colonies on plates (plate experiment)", "setting": "[4]; FIG. 4", "result": "overgrown with bacteria"}, {"measurement": "live bacteria stained green / dead bacteria stained red", "setting": "[4]; FIG. 5", "result": "a large number of live bacteria stained green and a small number of dead bacteria stained red"}, {"measurement": "bacterial morphology under a scanning electron microscope", "setting": "[4]; FIG. 6", "result": "regular and intact morphology"}, {"measurement": "corneal infection", "setting": "[5]", "result": "obviously infected"}]}
{"compound": "CC(C)(O/N=C(\\C(=O)N[C@@H]1C(=O)N2C(C(=O)[O-])=C(C[n+]3ccccc3)CS[C@H]12)c1csc(N)n1)C(=O)O", "note": "[ceftazidime]", "values": [{"measurement": "average resistance rate of P. aeruginosa to the antibiotic", "setting": "[6]", "result": 13, "unit": "%"}]}
{"compound": "O=C(O)c1cn(C2CC2)c2cc(N3CCNCC3)c(F)cc2c1=O", "note": "[ciprofloxacin]", "values": [{"measurement": "average resistance rate of P. aeruginosa to the antibiotic", "setting": "[6]", "result": 9, "unit": "%"}]}
{"compound": "NC[C@H]1O[C@H](O[C@H]2[C@H](O)[C@@H](O[C@H]3O[C@H](CO)[C@@H](O)[C@H](N)[C@H]3O)[C@H](N)C[C@@H]2N)[C@H](N)C[C@@H]1O", "note": "[tobramycin]", "values": [{"measurement": "corneal infection", "setting": "[7]", "result": "significant infection"}]}
{"compound": "gentamicin", "values": [{"measurement": "corneal infection", "setting": "[7]", "result": "significant infection"}, {"measurement": "average resistance rate of P. aeruginosa to the antibiotic", "setting": "[6]", "result": 22, "unit": "%"}]}
